Measurements from patent publication US11667621B2, “Antiestrogen compounds” (STEVENS INSTITUTE OF TECHNOLOGY, priority 2018, dated 2023).
Positions count from the first letter of the chain named.

Experiments:
[1] = molecular target: T1, full length human estrogen receptor a (Homo sapiens, UniProt P03372); assay: Competitive radiometric binding assay (RBA), tritiated estradiol tracer; conditions: relative to estradiol = 100; average SD of 2-3 determinations
T1 construct: purified, full-length human estrogen receptor a from Invitrogen; purchased Invitrogen
T1 sequence (P03372 1-595): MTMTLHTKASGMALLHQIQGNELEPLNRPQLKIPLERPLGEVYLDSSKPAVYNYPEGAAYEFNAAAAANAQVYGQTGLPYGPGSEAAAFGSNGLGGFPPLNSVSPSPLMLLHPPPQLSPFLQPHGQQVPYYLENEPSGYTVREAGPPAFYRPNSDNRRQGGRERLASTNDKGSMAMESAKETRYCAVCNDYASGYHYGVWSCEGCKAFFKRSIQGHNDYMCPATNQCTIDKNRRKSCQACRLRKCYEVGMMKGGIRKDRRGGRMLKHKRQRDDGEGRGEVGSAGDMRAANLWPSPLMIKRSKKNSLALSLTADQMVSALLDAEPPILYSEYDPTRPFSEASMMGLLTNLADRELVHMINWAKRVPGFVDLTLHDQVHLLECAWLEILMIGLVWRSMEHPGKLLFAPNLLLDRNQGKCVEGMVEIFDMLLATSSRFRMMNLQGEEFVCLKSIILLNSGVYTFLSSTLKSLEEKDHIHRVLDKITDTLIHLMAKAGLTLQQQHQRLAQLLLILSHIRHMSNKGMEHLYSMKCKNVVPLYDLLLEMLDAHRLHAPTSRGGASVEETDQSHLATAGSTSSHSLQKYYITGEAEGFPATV
Description: Tritiated estradiol was obtained from Perkin Elmer and purified, full-length human estrogen receptor a from Invitrogen.
Competitive radiometric binding assays (RBA) were performed on 96-well microtiter filter plates (Millipore), using full length human estrogen receptor a, with tritiated estradiol as tracer, as previously described (Carlson K E, Choi I, Gee A, Katzenellenbogen B S, Katzenellenbogen J A. Altered ligand binding properties and enhanced stability of a constitutively active estrogen receptor: evidence that an open pocket conformation is required for ligand interaction. Biochemistry 1997, 36(48), 14897-14905). After incubation on ice for 18-24 h, ERα-bound tracer was absorbed onto hydroxyapatite (BioRad), washed with buffer, and measured by scintillation counting. RBA values are the average SD of 2-3 determinations.

[2] = Cell proliferation assay (WST-1), 6-day exposure; type: cell-based; conditions: 144 h, read-out: Antiproliferation IC50
Description: Cell proliferation assay: WST-1 assay (Roche, Basel, Switzerland) was used to quantify cell viability after a 6-day exposure to compounds, as described in Gong et al. Mol. Cell. Endocrinol. 2016, 437, 190-200. Absorbance was measured at 450 nm using a VICTOR X5 PerkinElmer 2030 Multilabel Plate Reader, and cell proliferation values represent signal from compound-treated samples relative to vehicle-treated controls. All assays were performed in triplicate, and the values shown are the average SD of 2-3 independent experiments.

MCF7 = assay: Luciferase assay in MCF7; type: cell-based; design: concentration or dose not given beside the values
Description: (§1) Luciferase assays were performed to determine the efficacy of the example compounds at inhibiting ER or its mutants' ability to activate transcription of genes.
(§2) Cells were plated at a density of 0.15×10^6 per well of 24 well plates one day prior to transfection. Cells were transfected with 125 ng (per well) of HA-ERα wild type or mutants, 315 ng (per well) of 3×-ERE-TATA-Luciferase reporter and 50 ng (per well) of pRL-TK Renilla Luciferase plasmid, using Xtremegene (Roche). The cells were treated with the various compounds or Fulvestrant at the indicated doses a day after transfection for 24 hours and luciferase activities were determined using the Dual-Luciferase® Reporter Assay System (Promega) according to manufacturer's instructions. Luciferase bioluminescence measurements were performed with the Veritas™ Microplate Luminometer (Promega). All experiments were conducted in triplicate and the Firefly luciferase activity was normalized with the Renilla luciferase activity of each sample.

CRISPR KI D538G = molecular target: T2, CRISPR KI D538G (Homo sapiens, UniProt P03372, D538G); assay: Luciferase assay, CRISPR KI D538G clones; type: cell-based; conditions: for CRISPR KI (% Inhibition) D538G cl. 50: clone 50; for CRISPR KI (% Inhibition) D538G cl. 65: clone 65
T2 construct: endogenous in cells; host or cells: CRISPR knock-in clones (cl. 50, cl. 65)
T2 sequence (P03372 1-595 D538G): T1 sequence (P03372 1-595) with D538G
Description: as §1, §2

SMILES | RBA (estradiol = 100) [1] | CRISPR KI (% Inhibition) D538G cl. 50 (CRISPR KI D538G) [%] | CRISPR KI (% Inhibition) D538G cl. 65 (CRISPR KI D538G) [%] | IC50 [2] [nM] | MCF7 (% Inhibition) (MCF7) [%]
O=C(NCCCCOc1ccc(C(=C2C3CC4CC(C3)CC2C4)c2ccc(O)cc2)cc1)[C@H]1CC[C@H](C(F)(F)F)CC1 [Example 14, (trans)-N-(4-(4-(Adamantan-2-ylidene(4-hydroxyphenyl)methyl)phenoxy)-butyl)-4-(trifluoromethyl)cyclohexanecarboxamide] | 10 ± 0.4 | 67 | 73 | 0.5 | 72
O=C(NCCCCOc1ccc(C(=C2C3CC4CC(C3)CC2C4)c2ccc(O)cc2)cc1)C1CCC(F)(F)CC1 [Example 13, N-(4-(4-(Adamantan-2-ylidene(4-hydroxyphenyl)methyl)phenoxy)butyl)-4,4-difluorocyclohexanecarboxamide] | 30 ± 0.1 | 32 | 77 | 4 | 80
CC(C)(C)OC(=O)N[C@@H](Cc1c[nH]c2ccccc12)C(=O)NCCCCOc1ccc(C(=C2C3CC4CC(C3)CC2C4)c2ccc(O)cc2)cc1 [Example 1, (S)-tert-Butyl (1-((4-(4-(adamantan-2-ylidene(4-hydroxyphenyl)methyl)-phenoxy)butyl)amino)-3-(1H-indol-3-yl)-1-oxopropan-2-yl)carbamate] | 20 ± 6 | 15 | 71 | 16 | 71
O=C(NCCCCOc1ccc(C(=C2C3CC4CC(C3)CC2C4)c2ccc(O)cc2)cc1)[C@H]1C[C@@H]2C=C[C@H]1C2 [Example 9, (1R, 2S, 4R)—N-(4-(4-(Adamantan-2-ylidene(4-hydroxyphenyl)methyl)phenoxy)-butyl)bicyclo[2.2.1]hept-5-ene-2-carboxamide] | 37 ± 0.3 | 34 | 72 | 9 | 73
O=C(NCCCCOc1ccc(C(=C2C3CC4CC(C3)CC2C4)c2ccc(O)cc2)cc1)C1CCCCCC1 [Example 12, N-(4-(4-(Adamantan-2-ylidene(4-hydroxyphenyl)methyl)phenoxy)butyl)-cycloheptanecarboxamide] | 30 ± 5 | 36 | 80 | 5 | 82
O=C(NCCCCOc1ccc(C(=C2C3CC4CC(C3)CC2C4)c2ccc(O)cc2)cc1)C1CCCCC1 [Example 11, N-(4-(4-(Adamantan-2-ylidene(4-hydroxyphenyl)methyl)phenoxy)butyl)-cyclohexanecarboxamide] | 28 ± 6 | 74 | 84 | 0.6 | 84

Continued, in another order:

RBA (estradiol = 100) [1] | CRISPR KI (% Inhibition) D538G cl. 50 (CRISPR KI D538G) [%] | CRISPR KI (% Inhibition) D538G cl. 65 (CRISPR KI D538G) [%] | SMILES | IC50 [2] [nM] | MCF7 (% Inhibition) (MCF7) [%]
11 ± 3 | 68 | 73 | O=C(NCCCCOc1ccc(C(=C2C3CC4CC(C3)CC2C4)c2ccc(O)cc2)cc1)C12CC3CC(CC(C3)C1)C2 [Example 6, N-(4-(4-(Adamantan-2-ylidene(4-hydroxyphenyl)methyl)phenoxy)-butyl)adamantane-1-carboxamide] | 13 | 70
6.0 ± 0.1 | 15 | 44 | CC12CC3CC(C)(C1)CC(C(=O)NCCCCOc1ccc(C(=C4C5CC6CC(C5)CC4C6)c4ccc(O)cc4)cc1)(C3)C2 [Example 7, N-(4-(4-(Adamantan-2-ylidene(4-hydroxyphenyl)methyl)phenoxy)butyl)-3,5-dimethyladamantane-1-carboxamide] | 5 | 53
70 ± 1 | 19 | 65 | O=C(NCCCCOc1ccc(C(=C2C3CC4CC(C3)CC2C4)c2ccc(O)cc2)cc1)C1CCC1 [Example 10, N-(4-(4-(Adamantan-2-ylidene(4-hydroxyphenyl)methyl)phenoxy)butyl)-cyclobutanecarboxamide] | 3 | 66
17 ± 2 | 39 | 78 | O=C(NCCCCOc1ccc(C(=C2C3CC4CC(C3)CC2C4)c2ccc(O)cc2)cc1)C12CC3CC(CC1C3)C2 [Example 8, N-(4-(4-((Adamantan-2-ylidene)(4-hydroxyphenyl)methyl)phenoxy)butyl)-hexahydro-2,5-methanopentalene-3a(1H)-carboxamide] | 12 | 77
